Literature values, collected in patent US20100189771A1, “FIXED RATIO DRUG COMBINATION TREATMENTS FOR SOLID TUMORS” (priority 2005, published 2010).
Where two headings read alike, the source gives them in different places.

Conditions: conventional irinotecan

- IRINOTECAN AUC (dose 240 mg/m^2, N=3): 18,091 ng-h/ml
- IRINOTECAN Cmax (dose 240 mg/m^2, N=3, patients' plasma): 2,810 ng/ml
- IRINOTECAN AUC (dose 340 mg/m^2, N=6): 22,998 ng-h/ml
- IRINOTECAN Cmax (dose 340 mg/m^2, N=6): 3,392 ng/ml
Compound: CCc1c2c(nc3ccc(OC(=O)N4CCC(N5CCCCC5)CC4)cc13)-c1cc3c(c(=O)n1C2)COC(=O)[C@]3(O)CC [Irinotecan, irinotecan]
